# Tested on: LPS triggered IL-10 secretion in monocyte-derived macrophages (MdM)
# Test: MdM assay: LPS-triggered IL-10 (ELISA)
# Assay type: cell-based, human
# Conditions: LPS 200 ng/mL, maximal fold change vs LPS only
# Method: SIK inhibition inhibits TNFα and increases IL-10 release in LPS triggered monocyte-derived macrophages (MdM) and dendritic cells (MdDCs) (Clark et al. 2012; Sundberg et al. 2014; Ozanne et al. 2015). This assay evaluates illustrative compounds of the invention for their inhibition of LPS-induced TNFα and LPS triggered IL-10 secretion in monocyte-derived macrophages.
# PBMCs are isolated from human blood samples (buffycoats). The buffy coat is aseptically transferred into a 50 mL Falcon tube, and diluted ½ in PBS. Falcon tubes are filled with 20 mL Lymphoprep™, on top of which 25 mL of the buffy coat is carefully added, tubes are centrifuged for 35 min at 400 g in temperature controlled centrifuge, without brake, at 25° C. PBMCs are aspirated from the white interface layer between sample and Lymphoprep™. PBMCs are washed five times in PBS. Cells are resuspended in RPMI 1640 complete medium supplemented with 10% FBS, 1% P/S, and cell density is determined using a hematologic analyzer (Sysmex XS-500i). […]
# The columns are removed from the magnets, and 5 mL of Miltenyi buffer are added to the column to flush out the CD14+ fraction by pushing the plunger into the column. […] The obtained cell pellet is resuspended in 10 mL RPMI w/o FBS, and cell density is determined using a hematologic analyser (Sysmex XS-500i). […]
compound,measurement,value
"COc1cc(-c2cnn3cc(OCCN4CCOCC4)ccc23)cc2c1C(=O)N(CC(F)(F)F)CC2 [Cpd 1, 8-methoxy-6-[6-(2-morpholinoethoxy)pyrazolo[1,5-a]pyridin-3-yl]-2-(2,2,2-trifluoroethyl)-3,4-dihydroisoquinolin-1-one]",IL-10 FCmax median,++ (>1.5-4.5)

# Source: US12606554B2, “Compounds and pharmaceutical compositions thereof for the treatment of diseases” (ONCO3R Therapeutics BV, priority 2019, dated 2026)
